biological target: T1, human FAAH (Homo sapiens, UniProt O00519); assay: FAAH activity in membrane homogenates of H4-FAAH cells, [3H]-anandamide hydrolysis; assay type: biochemical; settings: not given
T1 construct: expressed in transfected cells; host or cells: H4 cells (H4-FAAH, Geneticin-selected); crude membrane homogenates
T1 sequence (O00519 1-579): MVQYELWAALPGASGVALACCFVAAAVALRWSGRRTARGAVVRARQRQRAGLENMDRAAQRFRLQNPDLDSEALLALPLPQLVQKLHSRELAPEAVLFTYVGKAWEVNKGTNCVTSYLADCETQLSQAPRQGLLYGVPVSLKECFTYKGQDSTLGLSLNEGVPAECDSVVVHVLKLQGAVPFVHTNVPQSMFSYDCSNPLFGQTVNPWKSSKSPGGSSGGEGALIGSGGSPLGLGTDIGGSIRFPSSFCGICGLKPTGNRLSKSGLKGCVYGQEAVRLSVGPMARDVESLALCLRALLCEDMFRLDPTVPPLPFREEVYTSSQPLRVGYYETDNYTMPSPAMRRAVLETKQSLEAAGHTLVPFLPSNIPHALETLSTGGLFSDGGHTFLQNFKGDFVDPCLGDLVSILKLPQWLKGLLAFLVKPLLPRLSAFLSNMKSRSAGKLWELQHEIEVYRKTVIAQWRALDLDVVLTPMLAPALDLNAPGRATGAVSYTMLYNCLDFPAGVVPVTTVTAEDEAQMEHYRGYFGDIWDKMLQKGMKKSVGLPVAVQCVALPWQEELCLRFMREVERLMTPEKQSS
Method: Homogenates of crude membranes were prepared from H4 cells that express transfected human FAAH (H4-FAAH cells). Briefly, cells were grown in DMEM supplemented with 10% FBS and Geneticin at a final concentration of 500 μg/ml (Gibco BRL, Rockville, Md.). Confluent cultures of H4-FAAH cells were rinsed twice with phosphate-buffered saline [138 mM NaCl, 4.1 mM KCl, 5.1 mM Na2PO4, 1.5 mM KH2PO4 (pH 7.5), 37° C.] and incubated for 5 to 10 minutes at 4° C. in lysis buffer [1 mM sodium bicarbonate]. Cells were transferred from plates to polypropylene tubes (16×100 mm), homogenized and centrifuged at 32,000×g for 30 minutes. Pellets were resuspended by homogenization in lysis buffer and centrifuged at 32,000×g for 30 minutes. Pellets were resuspended in lysis buffer (15-20 μg protein/ml) then stored at −80° C. until needed. On the day of an experiment, membranes were diluted to 2.67 μg protein/ml in 125 mM Tris-Cl, pH 9.0.
Activity of FAAH was measured using a modification of the method described by Omeir et al., 1995 (Life Sci 56:1999, 1995). Membrane homogenates (240 ng protein) were incubated at room temperature for one hour with 1.67 nM anandamide [ethanolamine 1-^3H] (available from American Radiolabeled Chemical Inc., St Louis, Mo.) and 10 μM anandamide (available from Sigma/RBI, St. Louis, Mo.) in the absence and presence of inhibitors. The reaction was stopped by the addition of 1 volume of a solution of 1:1 methanol and dichloroethane. The mixture was shaken and then centrifuged at 1000×g for 15 minutes to separate the aqueous and organic phases. An aliquot of the aqueous phase, containing [^3H]-ethanolamine was withdrawn and counted by scintillation spectroscopy. Data were expressed as the percentage of [^3H]-ethanolamine formed versus vehicle, after subtraction of the background radioactivity determined in the presence of 10 μM arachidonyl trifluoromethyl ketone (ATFMK), an inhibitor of FAAH. IC50 values were determined using a four-parameter logistic equation for dose-response curves.

Which IC50 does the source give for `CCCCCOc1ccc(NC(=O)O/N=C/c2ccccc2)cc1` [Example 11, Benzaldehyde, O-[[(4-pentyloxyphenyl)amino]carbonyl]oxime] here?
The IC50 was < 10 nM.

How did the IC50 turn out when `CCCCCCCCCCCOc1ccc(NC(=O)Oc2ccccc2)cc1` [Example 103, 4-Undecyloxyphenylcarbamic acid, phenyl ester] was run?
Its IC50 is < 10 nM.

`CCCCCCCCCCCOc1ccc(NC(=O)Oc2ccccc2F)cc1` [Example 104, 4-Undecyloxyphenylcarbamic acid, 2-fluorophenyl ester] was tested. Which IC50 did it give?
The IC50 was 10 to 100 nM.

same assay, conditions: H4-FAAH cell membranes, 10 μM anandamide, room temperature, one hour; read-out: IC50

Which IC50 does the source give for `O=C(Nc1ccc(OCc2ccccc2)cc1)O/N=C/c1ccc(F)cc1` [Example 81, 4-Fluorobenzaldehyde, O-[[[4-(phenylmethoxy)phenyl]amino]carbonyl]oxime] here?
Its IC50 is < 10 nM.

With `CCCCOc1ccc(CNC(=O)Oc2ccc(C(C)C)cc2)cc1` [Example 117, 4-(Butoxyphenylmethyl)carbamic acid, 4-(1-methylethyl)phenyl ester] as the compound, how does the IC50 read?
Its IC50 is 10 to 100 nM.

How did the IC50 turn out when `CCOc1ccc(NC(=O)O/N=C/c2ccc(F)cc2)cc1` [Example 12, 4-Fluorobenzaldehyde, O-[[(4-ethoxyphenyl)amino]carbonyl]oxime] was run?
The IC50 was 10 to 100 nM.

Which IC50 does the source give for `O=C(Nc1ccc(-c2ccccc2)cc1)O/N=C/c1cccnc1` [Example 69, 3-Pyridinecarboxaldehyde, O-[[([1,1′-biphenyl]-4-yl)amino]carbonyl]oxime] here?
The IC50 was 10 to 100 nM.

`O=C(Nc1ccc(OCc2ccccc2)cc1)O/N=C/c1cccnc1` [Example 78, 3-Pyridinecarboxaldehyde, O-[[[4-(phenylmethoxy)phenyl]amino]carbonyl]oxime] was tested. Which IC50 did it give?
The IC50 was < 10 nM.

With `CCCCOc1ccc(CNC(=O)Oc2cccc3ccccc23)cc1` [Example 115, 4-(Butoxyphenylmethyl)carbamic acid, 1-naphthalenyl ester] as the compound, how does the IC50 read?
Its IC50 is 10 to 100 nM.

How did the IC50 turn out when `CCCOc1ccc(NC(=O)O/N=C/c2ccc(F)cc2)cc1` [Example 13, 4-Fluorobenzaldehyde, O-[[(4-propoxyphenyl)amino]carbonyl]oxime] was run?
Its IC50 is 10 to 100 nM.

For `CCCCCCCCCOc1ccc(NC(=O)O/N=C/c2cc(F)c(F)cc2F)cc1` [Example 56, 2,4,5-Trifluorobenzaldehyde, O-[[(4-nonyloxyphenyl)amino]carbonyl]oxime], which IC50 is on record?
The IC50 was < 10 nM.

For `CCCCCCCCCCCOc1ccc(NC(=O)ON=C(C)C)cc1` [Example 36, 2-Propanone, O-[[(4-undecyloxyphenyl)amino]carbonyl]oxime], which IC50 is on record?
Its IC50 is < 10 nM.

For `CCCCCCCCCOc1ccc(NC(=O)O/N=C/c2cccc(C(F)(F)F)c2F)cc1` [Example 54, 2-Fluoro-3-(trifluoromethyl)benzaldehyde, O-[[(4-nonyloxyphenyl)amino]carbonyl]oxime], which IC50 is on record?
Its IC50 is < 10 nM.

How did the IC50 turn out when `CCCCOc1ccc(NC(=O)Oc2ccc(F)cc2)cc1` [Example 108, 4-Butoxyphenylcarbamic acid, 4-fluorophenyl ester] was run?
Its IC50 is 101 to 500 nM.

Which IC50 does the source give for `CCCCCCCCC(=O)Nc1ccc(NC(=O)O/N=C/c2ccc(F)cc2)cc1` [Example 137, 4-Fluorobenzaldehyde, O-[[(4-Nonanoylamino-phenyl)amino]carbonyl]oxime] here?
The IC50 was 10 to 100 nM.

How did the IC50 turn out when `CCCCOc1ccc(CNC(=O)Oc2ccc(F)cc2)cc1` [Example 121, 4-(Butoxyphenylmethyl)carbamic acid, 4-fluorophenyl ester] was run?
The IC50 was < 10 nM.

`CCCCOc1ccc(CNC(=O)Oc2ccc(F)cc2F)cc1` [Example 120, 4-(Butoxyphenylmethyl)carbamic acid, 2,4-difluorophenyl ester] was tested. Which IC50 did it give?
The IC50 was < 10 nM.

For `CCCCCCOc1ccc(NC(=O)O/N=C/c2ccc(F)cc2)cc1` [Example 24, 4-Fluorobenzaldehyde, O-[[(4-hexyloxyphenyl)amino]carbonyl]oxime], which IC50 is on record?
The IC50 was < 10 nM.

`CCCCOc1ccc(CNC(=O)O/N=C/c2ccccc2)cc1` [Example 62, Benzaldehyde, O-[[(4-butoxyphenylmethyl)amino]carbonyl]oxime] was tested. Which IC50 did it give?
The IC50 was 10 to 100 nM.

How did the IC50 turn out when `CCCCCCCCCCOc1ccc(NC(=O)O/N=C/c2ccccc2)cc1` [Example 33, Benzaldehyde, O-[[(4-decyloxyphenyl)amino]carbonyl]oxime] was run?
Its IC50 is < 10 nM.

How did the IC50 turn out when `CCCCCCCCOc1ccc(NC(=O)ON=C(C)C)cc1` [Example 29, 2-Propanone, O-[[(4-octyloxyphenyl)amino]carbonyl]oxime] was run?
Its IC50 is < 10 nM.

With `CCCCOc1ccc(CNC(=O)Oc2cccc(N(C)C)c2)cc1` [Example 118, 4-(Butoxyphenylmethyl)carbamic acid, 3-(dimethylamino)phenyl ester] as the compound, how does the IC50 read?
Its IC50 is 10 to 100 nM.

`CCCCOc1cccc(NC(=O)O/N=C/c2cccnc2)c1` [Example 65, 3-Pyridinecarboxaldehyde, O-[[(3-butoxyphenyl)amino]carbonyl]oxime] was tested. Which IC50 did it give?
The IC50 was 10 to 100 nM.

How did the IC50 turn out when `O=C(Nc1cccc(Oc2ccccc2)c1)O/N=C/c1ccccc1` [Example 91, Benzaldehyde, O-[[(3-phenoxyphenyl)amino]carbonyl]oxime] was run?
The IC50 was < 10 nM.

For `O=C(Nc1cccc(Oc2ccccc2)c1)O/N=C/c1cccnc1` [Example 87, 3-Pyridinecarboxaldehyde, O-[[(3-phenoxyphenyl)amino]carbonyl]oxime], which IC50 is on record?
The IC50 was < 10 nM.

`CCCCOc1ccc(C(CC)NC(=O)Oc2ccc(OC)cc2)cc1` (stereo not drawn) [Example 126, [1-(4-Butoxy-phenyl)-propyl]-carbamic acid 4-methoxy-phenyl ester] was tested. Which IC50 did it give?
Its IC50 is 10 to 100 nM.

For `CCCCCCCCCOc1ccc(NC(=O)ON=C(C)C)cc1` [Example 31, 2-Propanone, O-[[(4-nonyloxyphenyl)amino]carbonyl]oxime], which IC50 is on record?
Its IC50 is < 10 nM.

For `CCCCCCCCCCOc1ccc(NC(=O)O/N=C/c2cccnc2)cc1` [Example 35, 3-Pyridinecarboxaldehyde, O-[[(4-decyloxyphenyl)amino]carbonyl]oxime], which IC50 is on record?
Its IC50 is < 10 nM.

With `O=C(Nc1ccc(OCc2ccccc2)cc1)O/N=C/c1ccccc1` [Example 84, Benzaldehyde, O-[[[4-(phenylmethoxy)phenyl]amino]carbonyl]oxime] as the compound, how does the IC50 read?
Its IC50 is < 10 nM.

`O=C(Nc1ccc(Oc2ccncc2)cc1)O/N=C/c1ccc(F)cc1` [Example 146, 4-Fluorobenzaldehyde, O-[[[4-[(4-pyridinyl)oxy]phenyl]amino]carbonyl]oxime] was tested. Which IC50 did it give?
The IC50 was 101 to 500 nM.

Which IC50 does the source give for `CCCCCCCCCCCCOc1ccc(NC(=O)Oc2ccccc2)cc1` [Example 105, 4-Dodecyloxyphenylcarbamic acid, phenyl ester] here?
Its IC50 is < 10 nM.

How did the IC50 turn out when `CCCCOc1ccc(NC(=O)O/N=C/c2cccnc2)cc1OC` [Example 21, 3-Pyridinecarboxaldehyde, O-[[(4-butoxy-3-methoxyphenyl)amino]carbonyl]oxime] was run?
The IC50 was > 500 nM.

`CCCCCCCCCOc1ccc(NC(=O)O/N=C/c2ccccc2)cc1` [Example 47, Benzaldehyde, O-[[(4-nonyloxyphenyl)amino]carbonyl]oxime] was tested. Which IC50 did it give?
The IC50 was < 10 nM.

With `CCc1ccc(-c2ccc(NC(=O)O/N=C/c3cccnc3)cc2)cc1` [Example 70, 3-Pyridinecarboxaldehyde, O-[[(4′-ethyl-[1,1′-biphenyl]-4-yl)amino]carbonyl]oxime] as the compound, how does the IC50 read?
Its IC50 is 10 to 100 nM.

Which IC50 does the source give for `CCCCOc1ccc(NC(=O)O/N=C/c2cccnc2)cc1` [Example 44, 3-Pyridinecarboxaldehyde, O-[[(4-butoxyphenyl)amino]carbonyl]oxime] here?
The IC50 was 10 to 100 nM.

Which IC50 does the source give for `O=C(Nc1ccc(Oc2ccccn2)cc1)O/N=C/c1cccnc1` [Example 147, 3-Pyridinecarboxaldehyde, O-[[[4-[(2-pyridinyl)oxy]phenyl]amino]carbonyl]oxime] here?
Its IC50 is 101 to 500 nM.

Which IC50 does the source give for `CCCCCCCCCCCCOc1ccc(NC(=O)Oc2ccccc2F)cc1` [Example 106, 4-Dodecyloxyphenylcarbamic acid, 2-fluorophenyl ester] here?
The IC50 was 10 to 100 nM.

How did the IC50 turn out when `O=C(Nc1ccc(Oc2ccccc2)cc1)Oc1ccccc1F` [Example 123, 4-Phenoxyphenylcarbamic acid, 2-fluorophenyl ester] was run?
Its IC50 is > 500 nM.

`CCCCOc1ccc(CNC(=O)Oc2ccc3ccccc3c2)cc1` [Example 116, 4-(Butoxyphenylmethyl)carbamic acid, 2-naphthalenyl ester] was tested. Which IC50 did it give?
The IC50 was 10 to 100 nM.
